Key:
diabetic mice (db/db) = test: Kinetics of wound closure in diabetic mice (db/db) treated topically with acetylsalicylic acid; type: in vivo; settings: for wound closure (time to closure): from D3 post-lesion, NaCl control diabetic mice 26 days
Description: These animals are characterized by hyperglycemia, insulin resistance and hypertriglyceridemia, which makes these mice the first choice as models for diabetes of genetic origin. The mice of the “control” group for the db/db mice are heterozygous db/+mice.
(§1) The mouse is anesthetized by means of isoflurane (halogenated anesthetic gas). The dorsal part and the flanks of the mouse are shaved and disinfected and a circular excision of close to 1 cm^2 is made. The connective tissue at the interface of the muscle tissue is removed without damaging the muscle fascia. The skin is totally excised as far as the panniculus carnosus.
The wound thus created is protected by a device such as described in the patent applications filed by Laboratoires Urgo, FR 11 62295 and FR 11 62344, which enables both protection of the wound and observation and evaluation of the healing kinetics, and enables exudate to be collected.
The wound healing process is observed from 0 to 30 days post-lesion. Between 3 and 5 very high resolution standardized digital photographs are taken for each animal. The percentage wound closure is based on changes in surface area calculated for the same injury on the same mouse and for the indicated time points. Thus, the mean calculated for wound healing (as a percentage) over the 3 mice in a group is obtained independently and the statistics are calculated from 3 groups of 3 independent experiments.
as §1, with “As already described above, the mouse” for “The mouse”, “of isoflurane.” for “of isoflurane (halogenated anesthetic gas).”
In the meantime, the reference solution of acetylsalicylic acid is prepared at 5 mM. This solution will be used to prepare the solutions with concentrations of 100 μM, 200 μM, 300 μM, 1 mM, 2 mM, 2.9 mM, 4.8 mM and 5 mM.
Solutions with concentrations of 100 μM, 200 μM, 300 μM, 1 mM, 2 mM, 2.9 mM, 4.8 mM and 5 mM of acetylsalicylic acid are tested.
A volume of between 50 and 500 μl is taken off from each solution and placed in contact with the wound via a device such as described through the patent applications filed by Laboratoires Urgo, FR 11 62295 and FR 11 62344.
It is noteworthy that this placing of a predefined concentration of acetylsalicylic acid in contact with the site of healing is carried out starting from the third day post-lesion. Indeed, it is in this period that the delay in healing appears in the diabetic mice, compared to the “control” mice (FIGS. 1A and 1B). Moreover, in the context of treating diabetic patients, the treated wounds will already be formed and will be arrested in the inflammatory phase. No chronic wounds, and more particularly diabetic wounds, are treated as soon as they appear. Moreover, the inflammatory phase is an indispensable phase in healing, since it enables the damaged area to be cleaned and deterged by virtue of the infiltration of inflammatory cells such as polymorphonuclear neutrophils. It is therefore necessary to retain inflammation to initiate effective healing, and thus to not entirely block this phase. This is why treatment with acetylsalicylic acid is only proposed starting from D3 post-lesion.

diabetic mice (HFD) = test: Kinetics of cell infiltration into the wound (exudate) of diabetic mice (HFD) treated with acetylsalicylic acid; type: in vivo; settings: 1000 μM solution, D7 post-lesion, versus control diabetic mice
Description: FIG. 7: Kinetics of cell infiltration into the wound of “control” mice and diabetic mice (HFD) treated with acetylsalicylic acid.
HFD mice are murine models for induced diabetes, produced with C57BL/6 mice of 8 weeks of age. These mice follow a high calorie (high-fat) diet for 16 weeks. […] Unlike db/db mice, the diabetic state in these animals is not of genetic origin. The mice of the “control” group for the HFD mice are mice on a standard diet, also known by the abbreviation “NC”.
The cells from the exudate are recovered from D1 post-lesion until no more exudate is secreted by the wound. In order to determine the kinetics of polymorphonuclear neutrophil infiltration, the cells from the exudate from the lesion are characterized by flow cytometry by immunolabeling relating to the membrane receptors Ly6G, 7/4 (for the polymorphonuclear cells) and F4/80 (for the macrophages). A total of 10 000 events is analyzed for each sample. All the results are given in the form of percentage expression.
FIG. 7 describes the kinetics of cell infiltration carried out on “control” diabetic mice or on those to which has been applied a solution of 1000 μM of acetylsalicylic acid.

[1] = tested on: human peripheral blood-derived monocytes differentiated into macrophages; test: Viability of macrophages in vitro in the presence of acetylsalicylic acid (propidium iodide, flow cytometry); settings: 72 h incubation
Description: Moreover, cell viability tests are carried out on macrophages for various concentrations of acetylsalicylic acid (FIG. 6).
This method of analysis comprises the use of human peripheral blood-derived monocytes placed in culture in RPMI medium, to which is added M-CSF at 10 ng/ml, for 24 hours in order to differentiate them into macrophages. Acetylsalicylic acid is added to the culture medium in a final concentration of 1000 μM or 5000 μM.
Cell mortality is analyzed, after 72 hours of incubation, by flow cytometry by measuring the cytoplasmic incorporation of propidium iodide.
The aim of such a cell viability test carried out in vitro is to verify the harmfulness of the dose administered to the cells found in the wound, and preferably in the present case to macrophages, which are considered to be a type of effector cell in the healing of the lesion being studied.

SMILES: CC(=O)Oc1ccccc1C(=O)O [acetylsalicylic acid]
- effect on the healing kinetics compared with control diabetic mice (diabetic mice (db/db); 100 μM solution, topical): No effect whatsoever
- wound closure (time to closure) (diabetic mice (db/db); 300 μM solution, topical): around twenty
- resolution of inflammation compared to control diabetic mice (diabetic mice (db/db); 300 μM, 1000 μM and 2000 μM solutions, topical, early phase D3 to D7 post-lesion): very clear acceleration of resolution of inflammation
- wound closure (time to closure) (diabetic mice (db/db); 1000 μM solution, topical): around twenty
- effect on the healing kinetics compared with control diabetic mice (diabetic mice (db/db); 5000 μM solution, topical): No effect whatsoever
- speed of wound closure (overall conclusion) (diabetic mice (db/db); concentration of between 100 μM and 4800 μM, administered from D3 post-lesion): increased speed of wound closure
- number of cells infiltrating the site of the lesion (diabetic mice (HFD)): significant reduction
- cell toxicity ([1]; 1000 μM): no cell toxicity
- reduction of cell viability ([1]; 5000 μM): 20%
